We go through 17 compounds from patent US12173018B2, “Penicillin-binding protein inhibitors” (priority 2018, dated 2024).

Like-named read-outs stand apart in the source and are kept apart here.

What all share (type): cell-based
One experiment concerns P. aeruginosa ATCC 35151. Description: microbe, parasite or virus in culture. The following applies: Pseudomonas aeruginosa, ATCC35151; hyper-permeable P. aeruginosa ATCC 35151; read-out: MIC P. aeruginosa ATCC 35151. In short, it runs like this:
(§1)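 MIC = lowest concentration showing no visible growth after 16-20 h at 37° C. Cation-adjusted MH broth, 2-fold serial dilutions, starting inoculum 5×10^5 CFU/mL, per CLSI methods.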

The test system of experiment [1] is P. aeruginosa (ΔmexAB-oprM). The experiment is described as follows: microbe, parasite or virus in culture. The following applies: Pseudomonas aeruginosa, read-out: MIC P. aeruginosa ΔmexAB-OprM. In short, it runs like this: as §1
For a further experiment, the system named is A. baumannii ATCC 19606. Description: Broth microdilution MIC, A. baumannii ATCC 19606. The following applies: Acinetobacter baumannii. In a few lines: as §1
Background: Broth dilution looks for growth in wells or tubes with falling amounts of substance.

For another experiment, the system named is P. aeruginosa PAO1. The experiment is described as follows: Broth microdilution MIC, P. aeruginosa PAO1. The following applies: Pseudomonas aeruginosa. In a few lines: as §1
Setting [2] is: ATCC19606, A. baumannii ATCC 19606, broth microdilution, read-out: MIC A. baumannii ATCC 19606.
[3] abbreviates: P. aeruginosa PAO1, broth microdilution, read-out: MIC P. aeruginosa PAO1.
Where [4] appears, read: ATCC19606, read-out: MIC A. baumannii ATCC 19606.
The mark [5] stands for this setting: PAO1, read-out: MIC P. aeruginosa PAO1.

Take `CCN1CCN(C(=O)N[C@@H](C(=O)N[C@H]2Cc3ccc(F)c(C(=O)O)c3OB2O)c2ccc(O)c(F)c2)C(=O)C1=O` [Example 161, (R)-3-((R)-2-(4-ethyl-2,3-dioxopiperazine-1-carboxamido)-2-(3-fluoro-4-hydroxyphenyl)acetamido)-7-fluoro-2-hydroxy-3,4-dihydro-2H-benzo[e][1,2]oxaborinine-8-carboxylic acid]: the MIC in the experiment with P. aeruginosa ATCC 35151 was < 0.25 µg/mL; in experiment [1], 8 to 16 µg/mL; with A. baumannii ATCC 19606 (setting [2]) it was > 128 µg/mL; in the experiment on P. aeruginosa PAO1 (setting [3]), > 128 µg/mL.

As to `CCN1CCN(C(=O)NC(C(=O)N[C@H]2Cc3cccc(C(=O)O)c3OB2O)c2ccc(O)c(O)c2F)C(=O)C1=O` (some centres unmarked) [Example 70], the MIC in the experiment with P. aeruginosa ATCC 35151 is < 0.25 µg/mL; in experiment [1], 0.5 to 1 µg/mL; with A. baumannii ATCC 19606 (setting [2]), 0.5 to 1 µg/mL; with P. aeruginosa PAO1 (setting [3]), 8 to 16 µg/mL.

On to `CCN1CCN(C(=O)N[C@@H](C(=O)N[C@H]2Cc3cccc(C(=O)O)c3OB2O)c2ccc(O)c(O)c2Cl)C(=O)C1=O` [Example 190, (R)-3-((R)-2-(2-chloro-3,4-dihydroxyphenyl)-2-(4-ethyl-2,3-dioxopiperazine-1-carboxamido)acetamido)-2-hydroxy-3,4-dihydro-2H-benzo[e][1,2]oxaborinine-8-carboxylic acid], for which the MIC is < 0.25 µg/mL in the experiment on P. aeruginosa ATCC 35151, < 0.25 µg/mL in experiment [1], < 0.25 µg/mL in the experiment on A. baumannii ATCC 19606 (setting [2]) and 0.5 to 1 µg/mL in the experiment with P. aeruginosa PAO1 (setting [3]).

With `O=C(O)c1c(F)ccc2c1OB(O)[C@@H](NC(=O)C(NC(=O)N1CCN(CCF)C(=O)C1=O)c1ncc(O)cc1F)C2` (stereo partly drawn) [Example 183, (3R)-7-fluoro-3-(2-(3-fluoro-5-hydroxypyridin-2-yl)-2-(4-(2-fluoroethyl)-2,3-dioxopiperazine-1-carboxamido)acetamido)-2-hydroxy-3,4-dihydro-2H-benzo[e][1,2]oxaborinine-8-carboxylic acid], the MIC in the experiment on P. aeruginosa ATCC 35151 is < 0.25 µg/mL; in experiment [1], 32 to 64 µg/mL; in the experiment with A. baumannii ATCC 19606 (setting [2]) it was > 128 µg/mL; in the experiment on P. aeruginosa PAO1 (setting [3]) it was > 128 µg/mL.

`CCN1CCN(C(=O)N[C@H](C(=O)N[C@H]2Cc3ccc(F)c(C(=O)O)c3OB2O)c2ccc(O)c(O)c2Cl)C(=O)C1=O` [Example 188, (R)-3-((S)-2-(2-chloro-3,4-dihydroxyphenyl)-2-(4-ethyl-2,3-dioxopiperazine-1-carboxamido)acetamido)-7-fluoro-2-hydroxy-3,4-dihydro-2H-benzo[e][1,2]oxaborinine-8-carboxylic acid]: the MIC with P. aeruginosa ATCC 35151 was 0.5 to 1 µg/mL; in experiment [1], 0.5 to 1 µg/mL; in the experiment with A. baumannii ATCC 19606 (setting [2]), 32 to 64 µg/mL; in the experiment with P. aeruginosa PAO1 (setting [3]), 8 to 16 µg/mL.

Regarding `CCN1CCN(C(=O)NC(C(=O)N[C@H]2Cc3ccc(F)c(C(=O)O)c3OB2O)c2ccc(S(N)(=O)=O)cc2)C(=O)C1=O` (stereo partly drawn) [Example 181, (3R)-3-(2-(4-ethyl-2,3-dioxopiperazine-1-carboxamido)-2-(4-sulfamoylphenyl)acetamido)-7-fluoro-2-hydroxy-3,4-dihydro-2H-benzo[e][1,2]oxaborinine-8-carboxylic acid], the MIC in the experiment on P. aeruginosa ATCC 35151 is 0.5 to 1 µg/mL; in experiment [1] it was 8 to 16 µg/mL; in the experiment with A. baumannii ATCC 19606 (setting [2]) it was > 128 µg/mL; in the experiment on P. aeruginosa PAO1 (setting [3]) it was > 128 µg/mL.

As for `CCN1CCN(C(=O)N[C@@H](C(=O)N[C@H]2Cc3ccc(F)c(C(=O)O)c3OB2O)c2ccc(O)c(O)c2Cl)C(=O)C1=O` [Example 189, (R)-3-((R)-2-(2-chloro-3,4-dihydroxyphenyl)-2-(4-ethyl-2,3-dioxopiperazine-1-carboxamido)acetamido)-7-fluoro-2-hydroxy-3,4-dihydro-2H-benzo[e][1,2]oxaborinine-8-carboxylic acid], the MIC (in the experiment on P. aeruginosa ATCC 35151; in experiment [1]; in the experiment with A. baumannii ATCC 19606 (setting [2]); in the experiment with P. aeruginosa PAO1 (setting [3])) was < 0.25 µg/mL throughout.

In the case of `CC[C@H]1CN(CC)C(=O)C(=O)N1C(=O)NC(C(=O)N[C@H]1Cc2cccc(C(=O)O)c2OB1O)c1ncc(O)cc1F` (stereo partly drawn) [Example 218, (3R)-3-(2-((S)-4,6-diethyl-2,3-dioxopiperazine-1-carboxamido)-2-(3-fluoro-5-hydroxypyridin-2-yl)acetamido)-2-hydroxy-3,4-dihydro-2H-benzo[e][1,2]oxaborinine-8-carboxylic acid], the MIC is 2 to 4 µg/mL with P. aeruginosa ATCC 35151, 32 to 64 µg/mL in experiment [1], > 128 µg/mL with A. baumannii ATCC 19606 (setting [2]) and > 128 µg/mL in the experiment on P. aeruginosa PAO1 (setting [3]).

Consider `CCN1C[C@H](C)N(C(=O)NC(C(=O)N[C@H]2Cc3ccc(F)c(C(=O)O)c3OB2O)c2ccc(O)c(O)c2Cl)C(=O)C1=O` (stereo partly drawn) [Example 206, (3R)-3-(2-(2-chloro-3,4-dihydroxyphenyl)-2-((S)-4-ethyl-6-methyl-2,3-dioxopiperazine-1-carboxamido)acetamido)-7-fluoro-2-hydroxy-3,4-dihydro-2H-benzo[e][1,2]oxaborinine-8-carboxylic acid], for which the MIC in the experiment on P. aeruginosa ATCC 35151 is < 0.25 µg/mL; in experiment [1], < 0.25 µg/mL; with A. baumannii ATCC 19606 (setting [2]), < 0.25 µg/mL; in the experiment on P. aeruginosa PAO1 (setting [3]), 2 to 4 µg/mL.

For the compound `C[C@H]1CN(CCO)C(=O)C(=O)N1C(=O)NC(C(=O)N[C@H]1Cc2cccc(C(=O)O)c2OB1O)c1ccc(O)c(O)c1Cl` (stereo partly drawn) [Example 224, (3R)-3-(2-(2-chloro-3,4-dihydroxyphenyl)-2-((S)-4-(2-hydroxyethyl)-6-methyl-2,3-dioxopiperazine-1-carboxamido)acetamido)-2-hydroxy-3,4-dihydro-2H-benzo[e][1,2]oxaborinine-8-carboxylic acid], the MIC in the experiment on P. aeruginosa ATCC 35151 is < 0.25 µg/mL; in experiment [1], 0.5 to 1 µg/mL; in the experiment on A. baumannii ATCC 19606 (setting [2]) it was < 0.25 µg/mL; with P. aeruginosa PAO1 (setting [3]), 8 to 16 µg/mL.

Turning to `CCN1C[C@H](C)N(C(=O)NC(C(=O)N[C@H]2Cc3ccc(F)c(C(=O)O)c3OB2O)c2ncc(O)cc2F)C(=O)C1=O` (stereo partly drawn) [Example 208, (3R)-3-(2-((S)-4-ethyl-6-methyl-2,3-dioxopiperazine-1-carboxamido)-2-(3-fluoro-5-hydroxypyridin-2-yl)acetamido)-7-fluoro-2-hydroxy-3,4-dihydro-2H-benzo[e][1,2]oxaborinine-8-carboxylic acid], the MIC in the experiment with P. aeruginosa ATCC 35151 is < 0.25 µg/mL; in experiment [1], 32 to 64 µg/mL; in the experiment on A. baumannii ATCC 19606 (setting [2]) it was > 128 µg/mL; in the experiment on P. aeruginosa PAO1 (setting [3]), > 128 µg/mL.

As to `O=C(O)c1cccc2c1OB(O)[C@@H](NC(=O)C(NC(=O)N1CCN(CCF)C(=O)C1=O)c1ccc(S(=O)(=O)NCCO)cc1)C2` (stereo partly drawn) [Example 213, (3R)-3-(2-(4-(2-fluoroethyl)-2,3-dioxopiperazine-1-carboxamido)-2-(4-(N-(2-hydroxyethyl)sulfamoyl)phenyl)acetamido)-2-hydroxy-3,4-dihydro-2H-benzo[e][1,2]oxaborinine-8-carboxylic acid], the MIC was 2 to 4 µg/mL in the experiment on P. aeruginosa ATCC 35151, 8 to 16 µg/mL in experiment [1], > 128 µg/mL with A. baumannii ATCC 19606 (setting [2]) and > 128 µg/mL in the experiment with P. aeruginosa PAO1 (setting [3]).

With `CCN1CCN(C(=O)NC(C(=O)N[C@H]2Cc3ccc(F)c(C(=O)O)c3OB2O)c2ccc(O)c(O)c2Cl)C(O)C1=O` (stereo partly drawn) [Example 194, (3R)-3-(2-(2-chloro-3,4-dihydroxyphenyl)-2-(4-ethyl-2-hydroxy-3-oxopiperazine-1-carboxamido)acetamido)-7-fluoro-2-hydroxy-3,4-dihydro-2H-benzo[e][1,2]oxaborinine-8-carboxylic acid], the MIC was < 0.25 µg/mL with P. aeruginosa ATCC 35151, 0.5 to 1 µg/mL in experiment [1], 0.5 to 1 µg/mL in the experiment with A. baumannii ATCC 19606 (setting [4]) and 8 to 16 µg/mL in the experiment on P. aeruginosa PAO1 (setting [5]).

Turning to `CCN1CCN(C(=O)NC(C(=O)N[C@H]2Cc3ccc(F)c(C(=O)O)c3OB2O)c2ccc(O)c(O)c2F)C(=O)C1=O` (stereo partly drawn) [Example 149, (3R)-3-(2-(4-ethyl-2,3-dioxopiperazine-1-carboxamido)-2-(2-fluoro-3,4-dihydroxyphenyl)acetamido)-7-fluoro-2-hydroxy-3,4-dihydro-2H-benzo[e][1,2]oxaborinine-8-carboxylic acid], the MIC is < 0.25 µg/mL in the experiment with P. aeruginosa ATCC 35151, < 0.25 µg/mL in experiment [1], 8 to 16 µg/mL in the experiment with A. baumannii ATCC 19606 (setting [2]) and 2 to 4 µg/mL in the experiment on P. aeruginosa PAO1 (setting [3]).

As to `CCN1CCN(C(=O)NC(C(=O)N[C@H]2Cc3cccc(C(=O)O)c3OB2O)c2ncc(O)cc2Cl)C(=O)C1=O` (stereo partly drawn) [Example 150, (3R)-3-(2-(4-ethyl-2,3-dioxopiperazine-1-carboxamido)-2-(3-chloro-5-hydroxypyridin-2-yl)acetamido)-2-hydroxy-3,4-dihydro-2H-benzo[e][1,2]oxaborinine-8-carboxylic acid], the MIC in the experiment with P. aeruginosa ATCC 35151 is 2 to 4 µg/mL; in experiment [1], 32 to 64 µg/mL; in the experiment on A. baumannii ATCC 19606 (setting [2]), > 128 µg/mL; in the experiment on P. aeruginosa PAO1 (setting [3]), > 128 µg/mL.

With `CCN1CCN(C(=O)NC(C(=O)N[C@H]2Cc3cccc(C(=O)O)c3OB2O)c2ccc(C(=O)O)cc2)C(=O)C1=O` (stereo partly drawn) [Example 212, (3R)-3-(2-(4-carboxyphenyl)-2-(4-ethyl-2,3-dioxopiperazine-1-carboxamido)acetamido)-2-hydroxy-3,4-dihydro-2H-benzo[e][1,2]oxaborinine-8-carboxylic acid], the MIC is < 0.25 µg/mL with P. aeruginosa ATCC 35151, 8 to 16 µg/mL in experiment [1], > 128 µg/mL in the experiment on A. baumannii ATCC 19606 (setting [4]) and 32 to 64 µg/mL with P. aeruginosa PAO1 (setting [5]).

As for `CCN1C[C@@H](C)N(C(=O)NC(C(=O)N[C@H]2Cc3cccc(C(=O)O)c3OB2O)c2ncc(O)cc2F)C(=O)C1=O` (stereo partly drawn) [Example 191, (3R)-3-(2-((R)-4-ethyl-6-methyl-2,3-dioxopiperazine-1-carboxamido)-2-(3-fluoro-5-hydroxypyridin-2-yl)acetamido)-2-hydroxy-3,4-dihydro-2H-benzo[e][1,2]oxaborinine-8-carboxylic acid], the MIC is 2 to 4 µg/mL in the experiment on P. aeruginosa ATCC 35151, 32 to 64 µg/mL in experiment [1], > 128 µg/mL in the experiment with A. baumannii ATCC 19606 (setting [2]) and > 128 µg/mL with P. aeruginosa PAO1 (setting [3]).
